The values below come from US11912645B2, “Lipopeptide compounds for the treatment of pain disorders” (INSERM (Institut National de la Santé et de la Recherche …, priority 2017, dated 2024).

For this test, the system named is Caco-2 cells. Put plainly: Paracellular permeability, 4 kDa FITC-dextran flux across Caco-2 monolayer. It is filed as cell-based, human. The conditions noted are these: 10 μM apical, 24 h. As to the method:
FIG. 5: C12-Asn-GABA crosses the epithelial barrier without modifying epithelial cells physiology. Caco-2 cells were cultivated into transwell chambers. After treatment with C12-Asn-GABA (800 ng) at the apical side, C12-Asn-GABA was quantified inside the cells and both the apical and basolateral compartments by LC-MS/MS (A); data are represented as mean±SEM, n=3 experiments of 3 wells per condition. Extracted ion chromatogram at the exact mass of GABA (104.0702 m/z) with a mass accuracy of 5 ppm of the GABA commercial standard (GABA (Std.) and apical and basolateral compartments after loading or not Caco-2 cells with 800 ng of GABA at the apical site (B); representation of one well, n=3 experiments of 3 wells per condition. Paracellular permeability assessed by the passage of FITC-dextran loaded at the apical side (C) and CXCL8 secretion assessed by ELISA (D) were monitored after treatment of Caco-2 cells at the apical side with C12-Asn-GABA (10 μM); data are represented as mean±SEM, n=3 experiments of 3 wells per condition. […]
To assess the effect of C12-Asn-GABA on paracellular permeability, transport of dextran 4 kDa FITC across a Caco-2 cell monolayer was investigated. […] In parallel, the release of CXCL8 from Caco-2 cells into the medium, of both apical and basolateral sides of the transwell, was assessed by ELISA. […]
(Caco-2 cells form a polarised layer with tight junctions and transporters.)

For `CCCCCCCCCCCC(=O)NC(CC(N)=O)C(=O)NCCCC(=O)O` (stereo not shown) [C12-Asn-GABA, C11 C(O)-Asn-gamma-aminobutyric acid], the “percentage of 4 kDa FITC traversing the cell monolayers (paracellular permeability)” value is reported as “not modified”.
